The values that follow come from ChEMBL document CHEMBL4385628, “New insights into the binding mode of pyridine-3-carboxamide inhibitors of E. coli DNA gyrase” (Bioorg Med Chem, 2019).

By half-life is commonly meant the time in which the quantity being followed falls by half. The low end stands for fast loss, the high end for slow loss. By Papp A→B is commonly meant the apparent permeability from the apical to the basolateral side of a cell layer. The solubility is the concentration that dissolves in the medium under given conditions. One may read the MIC as the lowest concentration found to suppress growth. One may read the efflux ratio as the permeability from basolateral to apical divided by that in the opposite direction, in the common usage. In general, IC50 refers to the concentration at which inhibition is half-maximal. A higher IC50 goes with weaker potency.

≈ marks a conversion by molar mass, not a printed value. Calls of active or inactive are those of the source. The rule behind the calls is not given here.

Series [1] is described as follows: Half life in human liver microsomes. Type of series: ADME, Microsome. Background: Liver microsomes are vesicles of endoplasmic reticulum, rich in cytochrome P450 enzymes.
Series [2] in a line: Half life in mouse liver microsomes. The series is classed as ADME, Microsome.
The nature of series [3]: Apparent permeability across apical to basolateral side in human Caco2 cells. The series is classed as ADME, cell-based. The following applies: Caco-2. (In general: Caco-2 cells form a polarised layer with tight junctions and transporters.)
Series [4] can be described thus: Protein binding in human plasma. Type of series: ADME, cell-free. The following applies: read-out: PPB (converted).
The nature of series [5]: Aqueous solubility of compound. The series is classed as physicochemical.
Series [6] concerns the target DNA topoisomerase 2-alpha (Homo sapiens) (UniProt P11388). As to the kind of experiment: Inhibition of human topoisomerase-2alpha up to 100 uM.
In another series the test system is Staphylococcus aureus. Kind of series: Antibacterial activity against Staphylococcus aureus ATCC 29213 assessed as reduction in microbial growth by CLSI based broth microdilution method. The series is classed as functional.
In another series the test system is Escherichia coli. Kind of series: Antibacterial activity against Escherichia coli ATCC 25922 assessed as reduction in microbial growth by CLSI based broth microdilution method. The series is classed as functional. Background: Broth dilution looks for growth in wells or tubes with falling amounts of substance.
A short description of series [7]: Efflux ratio of apparent permeability across basolateral to apical over apical to basolateral side in human Caco2 cells. Type of series: ADME, cell-based. To be noted: Caco-2.
In a further series the target is DNA gyrase (Escherichia coli, UniProt P0AES4+P0AES6). Kind of series: Inhibition of Escherichia coli DNA gyrase(A2B2 tetramer) preincubated for 5 mins followed by ATP addition and measured once per minute for 20 to 30 minutes by ATPase assay. Type of series: protein-complex assay.

Chain of DNA topoisomerase 2-alpha (Homo sapiens) (P11388 whole entry): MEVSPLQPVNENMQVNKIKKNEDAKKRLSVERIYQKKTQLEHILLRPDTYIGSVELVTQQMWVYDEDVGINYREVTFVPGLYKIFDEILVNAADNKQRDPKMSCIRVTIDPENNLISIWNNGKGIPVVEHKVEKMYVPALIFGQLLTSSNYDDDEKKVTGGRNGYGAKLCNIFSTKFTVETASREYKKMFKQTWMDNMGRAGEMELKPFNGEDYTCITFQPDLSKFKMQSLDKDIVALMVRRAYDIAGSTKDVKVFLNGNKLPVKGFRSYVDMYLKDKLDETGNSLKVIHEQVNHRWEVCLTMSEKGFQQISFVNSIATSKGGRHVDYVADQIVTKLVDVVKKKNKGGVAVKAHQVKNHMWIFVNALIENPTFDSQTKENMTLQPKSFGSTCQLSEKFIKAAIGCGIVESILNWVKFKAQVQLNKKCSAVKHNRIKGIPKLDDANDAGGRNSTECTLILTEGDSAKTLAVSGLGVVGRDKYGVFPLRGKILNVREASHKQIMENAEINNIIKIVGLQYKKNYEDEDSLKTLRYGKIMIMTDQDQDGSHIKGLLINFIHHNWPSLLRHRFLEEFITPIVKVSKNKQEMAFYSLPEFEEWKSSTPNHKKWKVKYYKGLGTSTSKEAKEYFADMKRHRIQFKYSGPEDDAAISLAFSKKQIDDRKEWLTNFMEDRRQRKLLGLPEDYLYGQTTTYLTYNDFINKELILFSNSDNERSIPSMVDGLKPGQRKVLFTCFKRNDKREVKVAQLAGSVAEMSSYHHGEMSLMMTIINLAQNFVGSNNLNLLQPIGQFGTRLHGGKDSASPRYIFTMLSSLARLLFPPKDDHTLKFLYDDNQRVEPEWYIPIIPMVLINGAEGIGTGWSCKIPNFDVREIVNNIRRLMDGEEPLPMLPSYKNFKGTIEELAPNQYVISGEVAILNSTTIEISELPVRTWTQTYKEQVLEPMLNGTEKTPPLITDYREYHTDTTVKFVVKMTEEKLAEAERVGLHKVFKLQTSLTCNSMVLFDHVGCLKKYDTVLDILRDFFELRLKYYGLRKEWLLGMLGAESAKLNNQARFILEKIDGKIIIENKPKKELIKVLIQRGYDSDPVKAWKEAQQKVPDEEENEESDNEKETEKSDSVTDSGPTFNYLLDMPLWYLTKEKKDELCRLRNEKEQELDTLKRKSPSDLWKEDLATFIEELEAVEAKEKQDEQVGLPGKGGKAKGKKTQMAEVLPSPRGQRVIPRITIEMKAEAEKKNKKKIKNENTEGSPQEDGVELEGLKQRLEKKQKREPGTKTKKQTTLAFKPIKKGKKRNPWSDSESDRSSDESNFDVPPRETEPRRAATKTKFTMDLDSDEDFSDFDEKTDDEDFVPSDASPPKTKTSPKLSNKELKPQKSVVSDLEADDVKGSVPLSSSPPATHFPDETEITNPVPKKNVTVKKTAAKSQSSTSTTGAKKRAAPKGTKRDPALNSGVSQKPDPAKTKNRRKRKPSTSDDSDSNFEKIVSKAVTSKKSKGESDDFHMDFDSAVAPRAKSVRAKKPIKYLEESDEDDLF

Consider `CCNC(=O)Nc1cc(Nc2cccc(C)c2)c(C(=O)Nc2cccc(C)c2)cn1`, for which the results for the half-life in series [1] and in [2] were 46 min and 58 min, respectively. Besides, in [3], the Papp A→B was under 2.67 ×10⁻⁶ cm/s. Further, the fraction unbound in [4] was 0.001. In [5], this compound yielded a solubility of 4.26 µM (≈ 1.72 µg/mL).

Consider `CCNC(=O)Nc1cc(Nc2ccc(OC)cc2)c(C(=O)Nc2cccnc2)cn1`, for which the inhibition result in [6] is “inactive”. The MIC with Staphylococcus aureus is 4 µg/mL; in the series with Escherichia coli, over 64 µg/mL. For the same compound, in series [1], the half-life turned out to be 20 min. Further, in series [3], the Papp A→B turned out to be 11.8 ×10⁻⁶ cm/s. Further, the efflux ratio in series [7] was 2.82. In addition, in series [4], the fraction unbound is 0.028. Besides, the solubility in series [5] was 2.4 µM (≈ 0.975 µg/mL). Further, on DNA gyrase, the IC50 is 19 nM.

Take `CCNC(=O)Nc1cc(-n2ccnn2)c(C(=O)Nc2cccnc2)cn1`: the IC50 on DNA gyrase was found to be 200 nM.

Regarding `CCNC(=O)Nc1cc(N2CCC(N)C2)c(C(=O)Nc2cccnc2)cn1` (stereo not given), the inhibition result in series [6] is “inactive”. In addition, the MIC in the series with Staphylococcus aureus and with Escherichia coli was over 64 µg/mL throughout. In [1], the half-life is 290 min. Moreover, in [3], the Papp A→B is 4.02 ×10⁻⁶ cm/s. Moreover, the efflux ratio in series [7] was 2.78. Moreover, the fraction unbound in series [4] is 0.498. This compound also displayed a solubility in series [5] of 88.5 µM (≈ 32.7 µg/mL). At DNA gyrase, this compound returned a concentration for half-maximal inhibition (IC50) of 89 nM.

As for `CCNC(=O)Nc1cc(-n2nccn2)c(C(=O)Nc2cccnc2)cn1`, the figures for the MIC with Staphylococcus aureus and in the series with Escherichia coli were 64 µg/mL and over 64 µg/mL, respectively. At DNA gyrase, this compound registered a concentration for half-maximal inhibition (IC50) of 150 nM.

For `CCNC(=O)Nc1cc(N2CCCC2)c(C(=O)Nc2cccnc2)cn1`, the minimal inhibitory concentration (MIC) is 64 µg/mL in the series on Staphylococcus aureus and over 64 µg/mL with Escherichia coli. At DNA gyrase, this compound registered a half-inhibitory concentration (IC50) of 120 nM.

For the compound `CCNC(=O)Nc1cc(-n2cc(Br)cn2)c(C(=O)Nc2cccnc2)cn1`, the inhibition result in series [6] was “inactive”. The MIC with Staphylococcus aureus is 16 µg/mL; with Escherichia coli it was over 64 µg/mL. At DNA gyrase, this compound displayed an IC50 of 37 nM.

In the case of `CCNC(=O)Nc1cc(Nc2ccccc2O)c(C(=O)Nc2cccnc2)cn1`, the MIC in the series on Staphylococcus aureus and with Escherichia coli was over 64 µg/mL throughout. Half-maximal inhibition against DNA gyrase (IC50) was put at 410 nM.

`CCNC(=O)Nc1cc(-n2cccn2)c(C(=O)Nc2cccnc2)cn1`: in series [6], the inhibition entry was “inactive”. For the same compound, the MIC with Staphylococcus aureus is 64 µg/mL; in the series with Escherichia coli, over 64 µg/mL. The half-life in series [1] was determined as 128 min; in series [2], 24 min. In addition, the apparent permeability from apical to basolateral (Papp A→B) in series [3] was 1.23 ×10⁻⁶ cm/s. The efflux ratio in series [7] stood at 30.8. The fraction unbound in series [4] was 0.095. The compound further displayed a solubility in series [5] of 32.6 µM (≈ 11.5 µg/mL). At DNA gyrase, this compound displayed an IC50 of 86 nM.

Consider `CCNC(=O)Nc1cc(-n2cncn2)c(C(=O)Nc2cccnc2)cn1`, for which the MIC in the series with Staphylococcus aureus and with Escherichia coli was over 64 µg/mL throughout. This compound displayed an IC50 at DNA gyrase of 82 nM.
